# According to US6228877A, “Substituted pyrroles” (Hoffmann-La Roche Inc., priority 1998, dated 2001):
# Test system: epithelial breast carcinoma cell line (MDAMB-435)
# Test: effect of compounds on growth of epithelial breast carcinoma cell line MDAMB-435 (MTT, 5 days)
# Assay type: cell-based
# Settings: Homo sapiens, MDA-MB-435, 120 h, MDAMB-435 cells, 5 days post drug addition, 0.1% DMSO
# Procedure: The epithelial breast carcinoma cell line (MDAMB-435) was purchased from ATCC (American Type Cell Culture Collection) and was grown in culture in medium as recommended by ATCC. For analysis of the effect of various compounds on growth of these cells, the cells were plated at a concentration of 1500 cells/well in a 96 well tissue culture plate ("test plate). The day after the cells were plated, the compounds to be analyzed were dissolved in 100% DMSO (dimethyl sulfoxide) to yield at 10 mM stock solution. Each compound was diluted in H2 O to 1 mM and was added to triplicate wells in the first row of a 96 well master plate which contains medium to yield a final concentration of 40 μM. The compounds were then serially diluted in medium in the "master plate". The diluted compound(s) were then transferred to test plates containing cells. A row of vehicle "control cells" received DMSO. The final concentration of DMSO in each well was 0.1%. 5 days post drug addition, the plate was analyzed as follows:
# MTT (3-(4-5 methyl thiazole-2-yl)-2,5-diphenyl tetrazolium bromide; thiazolyl blue) was added to each well to yield a final concentration of 1 mg/ml. The plate was then incubated at 37° C. for 21/2-3 hours. The MTT containing medium was then removed and 50 μl of 100% ethanol was added to each well to dissolve the formazan. The absorbences were then read using an automated plate reader (Bio-tek microplate reader).
# IC50 's were calculated using the Reed and Munsch equation, see Am. J. Hygiene Vol. 27 pgs. 493-497, 1938.
structure (smiles),measurement,value
"Cc1ccc2c(C3=C(c4cn(C)c5ccc(Cl)cc45)C(=O)NC3=O)cn(C)c2c1 [H Cl H CH3, 3-(5-Chloro-1-methyl-1H-indol-3-yl)-4-(1,6-dimethyl-1H-indol-3-yl)-pyrrole-2,5-dione]",IC50,400 nM
"Cn1cc(C2=C(c3cn(C)c4cc([N+](=O)[O-])ccc34)C(=O)NC2=O)c2cc(Cl)ccc21 [H Cl H NO2, 3-(5-Chloro-1-methyl-1H-indol-3-yl)-4-(l-methyl-6-nitro-1H-indol-3-yl)-pyrrole-2,5-dione]",IC50,170 nM
"Cn1cc(C2=C(c3cn(C)c4cc([N+](=O)[O-])ccc34)C(=O)NC2=O)c2ccc(Br)cc21 [H H Br NO2, 3-(6-Bromo-1-methyl-1H-indol-3-yl)-4-(1-methyl-6-nitro-1H-indol-3-yl)-pyrrole-2,5-dione]",IC50,70 nM
"Cn1cc(C2=C(c3cn(C)c4cc([N+](=O)[O-])ccc34)C(=O)NC2=O)c2ccc(NC(=O)C(F)(F)F)cc21 [H H CF3 CONH NO2, N-{1-methyl-3-[4-(1-methyl-6-nitro-1H-indol-3-yl)-2,5-dioxo-2,5-dihydro-1H-pyrrol-3-yl]-1H-indol-3-yl}-trifluoroacetamide]",IC50,12 nM
"Cc1ccc2c(C3=C(c4cn(C)c5cc(C#N)ccc45)C(=O)NC3=O)cn(C)c2c1 [H H CH3 CN, 3-[4-(1,6-dimethyl-1H-indol-3-yl)-2,5-dioxo-2,5-dihydro-1H-pyrrole-3-yl]-1-methyl-1H-indole-6-carbonitrile]",IC50,10 nM
"COc1ccc2c(C3=C(c4cn(C)c5cc(NC(C)=O)ccc45)C(=O)NC3=O)cn(C)c2c1 [H H CH3 CONH CH3 O, N-{3-[4-(6-Methoxy-1-methyl-1H-indol-3-yl)-2,5-dioxo-2,5-dihydro-1H-pyrrol-3-yl]-1-methyl-1H-indol-6-yl}-acetamide]",IC50,70 nM
CC(=O)Nc1ccc2c(C3=C(c4cn(C)c5cc([N+](=O)[O-])ccc45)C(=O)NC3=O)cn(C)c2c1 [H H CH3 CONH NO2],IC50,20 nM
"CNc1ccc2c(C3=C(c4cn(C)c5cc(OC)ccc45)C(=O)NC3=O)cn(C)c2c1 [H H CH3 NH CH3 O, 3-(6-Methoxy-1-methyl-1H-indol-3-yl)-4-(1-methyl-6-methyl-amino-1H-indol-3-yl)-pyrrole-2,5-dione]",IC50,< 10 nM
"Cc1ccc2c(C3=C(c4cn(C)c5cc([N+](=O)[O-])ccc45)C(=O)NC3=O)cn(C)c2c1 [H H CH3 NO2, 3-(1,6-dimethyl-1H-indol-3-yl)-4-(1-methyl-6-nitro-1H-indol-3-yl)-pyrrole-2,5-dione]",IC50,70 nM
"COc1ccc2c(C3=C(c4cn(C)c5cc(C)ccc45)C(=O)NC3=O)cn(C)c2c1 [H H CH3 OCH3, 3-(1,6-dimethyl-1H-indol-3-yl)-4-(6-methoxy-1-methyl-1H-indol-3-yl)-pyrrole-2,5-dione]",IC50,20 nM
COc1ccc2c(C3=C(c4cn(C)c5cc(NC=O)ccc45)C(=O)NC3=O)cn(C)c2c1 [H H CHONH CH3 O],IC50,10 nM
"Cn1cc(C2=C(c3cn(C)c4cc([N+](=O)[O-])ccc34)C(=O)NC2=O)c2ccc(C#N)cc21 [H H CN NO2, 1-methyl-3-[4-(1-methyl-6-nitro-1H-indol-3-yl)-2,5-dioxo-2,5-dihydro-1H-pyrrol-3-yl]1H-indole-6-carbonitrile]",IC50,50 nM
"COc1ccc2c(C3=C(c4cn(C)c5cc(C#N)ccc45)C(=O)NC3=O)cn(C)c2c1 [H H CN OCH3, 3-[4-(6-methoxy-1-methyl-1H-indol-3-yl)-2,5-dioxo-2,5-dihydro-1H-pyrrole-3-yl]-1-methyl-indol-6-carbonitrile]",IC50,5 nM
"COC(=O)c1ccc2c(C3=C(c4cn(C)c5cc([N+](=O)[O-])ccc45)C(=O)NC3=O)cn(C)c2c1 [H H CO2 CH3 NO2, 1-methyl-3[4-(1-methyl-6-nitro-1H-indol-3-yl)-2,5-dioxo-2,5-dihydro-1H-pyrrole-3-yl]-1H-indole-6-carboxylic acid methyl ester]",IC50,7 nM
"COc1ccc2c(C3=C(c4cn(C)c5cc(Cl)ccc45)C(=O)NC3=O)cn(C)c2c1 [H H Cl OCH3, 3-(6-chloro-1-methyl-1H-indol-3-yl)-4-(6-methoxy-1-methyl-1H-indol-3-yl)-pyrrole-2,5-dione]",IC50,7 nM
"CCOCCOCCOc1ccc2c(C3=C(c4cn(C)c5cc([N+](=O)[O-])ccc45)C(=O)NC3=O)cn(C)c2c1 [H H Et(OCH2 CH2)2 O NO2, 3-{6-[2-(2-Ethoxy-ethoxy)-ethoxy]-1-methyl-1H-indol-3-yl}-4-(1-methyl-6-nitro-1H-indol-3-yl)-pyrrole-2,5-dione]",IC50,40 nM
"COc1ccc2c(C3=C(c4cn(C)c5cc(F)ccc45)C(=O)NC3=O)cn(C)c2c1 [H H F OCH3, 3-(6-fluoro-1-methyl-1H-indol-3-yl)-4-(6-methoxy-1-methyl-1H-indol-3-yl)-pyrrole-2,5-dione]",IC50,20 nM
"COc1ccc2c(C3=C(c4cn(C)c5cc(N=[N+]=[N-])ccc45)C(=O)NC3=O)cn(C)c2c1 [H H N3 CH3 O, 3-(6-Azido-1-methyl-1H-indol-3-yl)-4-(6-methoxy-1-methyl-1H-indol-3-yl)-pyrrole-2,5,-dione]",IC50,70 nM
"Cn1cc(C2=C(c3cn(C)c4cc(Br)ccc34)C(=O)NC2=O)c2ccc(N)cc21 [H H NH2 Br, 3-(6-Amino-1-methyl-1H-indol-3-yl)-4-(6-bromo-1-methyl-1H-indol-3-yl)-pyrrole-2,5-dione]",IC50,4 nM
"COc1ccc2c(C3=C(c4cn(C)c5cc(N)ccc45)C(=O)NC3=O)cn(C)c2c1 [H H NH2 CH3 O, 3-(6-Amino-1-methyl-1H-indol-3-yl)-4-(6-methoxy-1-methyl-1H-indol-3-yl)-pyrrole-2,5-dione]",IC50,15 nM
"Cn1cc(C2=C(c3cn(C)c4cc(C#N)ccc34)C(=O)NC2=O)c2ccc(N)cc21 [H H NH2 CN, 3-[4-(6-Amino-1-methyl-1H-indol-3-yl)-2,5-dioxo-2,5-dihydro-1H-pyrrol-3-yl]-1-methyl-1H-indole-6-carbonitrile]",IC50,< 10 nM
"COC(=O)c1ccc2c(C3=C(c4cn(C)c5cc(N)ccc45)C(=O)NC3=O)cn(C)c2c1 [H H NH2 CO2 CH3, 3-[4-(6-Amino-1-methyl-1H-indol-3-yl)-2,5-dioxo-2,5-dihydro-1H-pyrrol-3-yl] -1-methyl-1H-indole-6-carboxylic acid methyl ester]",IC50,50 nM
"Cn1cc(C2=C(c3cn(C)c4cc(Cl)ccc34)C(=O)NC2=O)c2ccc(N)cc21 [H H NH2 Cl, 3-(6-Amino-1-methyl-1H-indol-3-yl)-4-(6-chloro-1-methyl-1H-indol-3-yl)-pyrrole-2,5-dione]",IC50,12 nM
CCOc1ccc2c(C3=C(c4cn(C)c5cc(N)ccc45)C(=O)NC3=O)cn(C)c2c1 [H H NH2 EtO],IC50,12 nM
"Cn1cc(C2=C(c3cn(C)c4cc(F)ccc34)C(=O)NC2=O)c2ccc(N)cc21 [H H NH2 F, 3-(6-Amino-1-methyl-1H-indol-3-yl)-4-(6-fluoro-1-methyl-1H-indol-3-yl)-pyrrole-2,5-dione]",IC50,42 nM
"Cn1cc(C2=C(c3cn(C)c4cc(N)ccc34)C(=O)NC2=O)c2ccc(N)cc21 [H H NH2 NH2, 3,4-bis-(1-methyl-6-amino-1H-indol-3-yl)-pyrrole-2,5-dione]",IC50,700 nM
"Cn1cc(C2=C(c3cn(C)c4cc([N+](=O)[O-])ccc34)C(=O)NC2=O)c2ccc(N)cc21 [H H NH2 NO2, 3-(6-Amino-1-methyl-1H-indol-3-yl)-4-(1-methyl-6-nitro-1H-indol-3-yl)-pyrrole-2,5-dione]",IC50,< 10 nM
"Cn1cc(C2=C(c3cn(C)c4cc([N+](=O)[O-])ccc34)C(=O)NC2=O)c2ccc(Cl)cc21 [H H NO2 Cl, 3-(6-chloro-1-methyl-1H-indol-3-yl)-4-(1-methyl-6-nitro-1H-indol-3-yl)-pyrrole-2,5-dione]",IC50,70 nM
"Cn1cc(C2=C(c3cn(C)c4cc([N+](=O)[O-])ccc34)C(=O)NC2=O)c2ccc(F)cc21 [H H NO2 F, 3-(6-fluoro-1-methyl-1H-indol-3-yl)-4-(1-methyl-6-nitro-1H-indol-3-yl)-pyrrole-2,5-dione]",IC50,70 nM
"Cn1cc(C2=C(c3cn(C)c4cc([N+](=O)[O-])ccc34)C(=O)NC2=O)c2ccc([N+](=O)[O-])cc21 [H H NO2 NO2, 3,4-Bis-(1-methyl-6-nitro-1H-indol-3-yl)-pyrrole-2,5-dione]",IC50,70 nM
"Cn1cc(C2=C(c3cn(C)c4cc([N+](=O)[O-])ccc34)C(=O)NC2=O)c2ccc(OCc3ccccc3)cc21 [H H NO2 Obenzyl, 3-(6-benzyloxy-1-methyl-1H-indol-3-yl)-4-(1-methyl-6-nitro-1H-indol-3-yl)-pyrrole-2,5-dione]",IC50,90 nM
"CSc1ccc2c(C3=C(c4cn(C)c5cc([N+](=O)[O-])ccc45)C(=O)NC3=O)cn(C)c2c1 [H H NO2 SCH3, 3-(1-Methyl-6-methylsulfanyl-1H-indol-3-yl)-4-(1-methyl-6-nitro-1H-indol-3-yl)-pyrrole-2,5-dione]",IC50,9 nM
"COc1ccc2c(C3=C(c4cn(C)c5cc([N+](=O)[O-])ccc45)C(=O)NC3=O)cn(C)c2c1 [H H OCH3 NO2, 3-(6-methoxy-1-methyl-1H-indol-3-yl)-4-(1-methyl-6-nitro-1H-indol-3-yl)-pyrrole-2,5-dione]",IC50,7 nM
"COc1ccc2c(C3=C(c4cn(C)c5cc(OC)ccc45)C(=O)NC3=O)cn(C)c2c1 [H H OCH3 OCH3, 3,4-Bis-(6-methoxy-1-methyl-1H-indol-3-yl)-pyrrole-2,5-dione]",IC50,5 nM
